According to paper PMC8636726 (Synthetic and Systems Biotechnology, 2021):

What follows are molecules tested against T1, EmbR protein (Mycobacterium tuberculosis, UniProt P9WGJ9). Settings: BLI, clinical TB drugs tested as controls under the same conditions.
T1 sequence (P9WGJ9 1-388): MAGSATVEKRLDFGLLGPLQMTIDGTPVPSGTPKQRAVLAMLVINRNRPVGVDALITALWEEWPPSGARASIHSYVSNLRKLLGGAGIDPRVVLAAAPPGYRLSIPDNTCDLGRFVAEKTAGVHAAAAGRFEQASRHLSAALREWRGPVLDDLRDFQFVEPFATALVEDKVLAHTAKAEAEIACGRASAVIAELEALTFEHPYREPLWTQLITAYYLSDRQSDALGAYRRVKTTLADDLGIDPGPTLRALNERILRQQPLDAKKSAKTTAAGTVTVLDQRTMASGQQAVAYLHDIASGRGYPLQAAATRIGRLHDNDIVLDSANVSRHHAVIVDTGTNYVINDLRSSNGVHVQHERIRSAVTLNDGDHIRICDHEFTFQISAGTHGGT
Assay type: binding

| Compound | binding to EmbR |
| --- | --- |
| CC[C@@H](CO)NCCN[C@@H](CC)CO [EMB, Ethambutol] | no significant binding |
| NNC(=O)c1ccncc1 [INH, isoniazid] | no significant binding |
| CO[C@H]1/C=C/O[C@@]2(C)Oc3c(C)c(O)c4c(O)c(c(/C=N/N5CCN(C)CC5)c(O)c4c3C2=O)NC(=O)/C(C)=C\C=C\[C@H](C)[C@H](O)[C@@H](C)[C@@H](O)[C@@H](C)[C@H](OC(C)=O)[C@@H]1C [RIF, rifampicin] | no significant binding |
